Values joined by “and” are separate entries in the source; they are usually repeats but may differ in a detail not shown here. Equal values may be shown once.
Key:
Erysiphe graminis = assay: Test on preventive effect against wheat powdery mildew; format: in vivo, Erysiphe graminis on wheat (cultivar: Norin-61); design: key: control value = (1 − a/b)×100; a, b = sporulation area treated/untreated; conditions: single compound alone
Method: Wheat (cultivar: Norin-61) was cultivated in a plastic pot having a diameter of 7.5 cm, and when it reached 1.5-leaf stage, a chemical solution having each test compound adjusted to a prescribed concentration, was applied by a spray gun in an amount of 5 ml/seedling. After the chemical solution dried, conidia of Erysiphe graminis were dusted and inoculated and maintained in a constant temperature chamber at 20° C. From 6 to 8 days after the inoculation, the area of sporulation was investigated, and the control value was determined in accordance with the following formula, and the results are shown in Tables 1 to 7. The area of sporulation in the non-treated plot was determined in the same manner as for the treated plot except that water was applied by a spray gun instead of the chemical solution.
(§1) Control value=(1−a/b)×100
a: area of sporulation in the treated plot
b: area of sporulation in the non-treated plot
Based on the obtained control value, an expected value (control value) was calculated by the Colby's formula. The expected values by the Colby's formula are also shown in brackets ( ) in Tables 1 to 7.
When the experimental value is higher than the expected value, the fungicidal composition of the present invention has a synergistic effect against wheat powdery mildew.

Botrytis cinerea = assay: Test on preventive effect against kidney bean gray mold; format: in vivo, Botrytis cinerea on kidney bean (cultivar: Taishokintoki); conditions: single compound alone
Method: Kidney bean (cultivar: Taishokintoki) was cultivated in a plastic pot having a diameter of 12 cm, and when it reached 3 to 4-leaf stage, a chemical solution having each test compound adjusted to a prescribed concentration, was applied by a spray gun in an amount of 10 ml/seedling. After the chemical solution dried, a suspension of conidia of Botrytis cinerea was blotted on a paper disk having a diameter of 8 mm for implantation inoculation and maintained in a constant temperature chamber at 20° C. Upon expiration of 3 days from the inoculation, the lesion area was investigated, and the control value was determined in accordance with the following formula, and the results are shown in Table 8. The lesion area in the non-treated plot was determined in the same manner as for the treated plot except that water was applied by a spray gun instead of the chemical solution.
as §1
a: lesion area in the treated plot
b: lesion area in the non-treated plot
Based on the obtained control value, an expected value (control value) was calculated by the Colby's formula. The expected values by the Colby's formula are also shown in brackets ( ) in Table 8.
When the experimental value is higher than the expected value, the fungicidal composition of the present invention has a synergistic effect against kidney bean gray mold.

With C=CCSC(=O)n1c(N)c(-c2ccccc2C)c(=O)n1C(C)C [fenpyrazamine] the Control value (Erysiphe graminis; 63 ppm) was 0 and the Control value (Erysiphe graminis; 250 ppm) was 0.
For Cn1cc(C(=O)Nc2ccccc2-c2cc(F)c(F)c(F)c2)c(C(F)F)n1 [fluxapyroxad], the Control value (Erysiphe graminis; 6.3 ppm) was 30 and the Control value (Erysiphe graminis; 50 ppm) was 50.
CC(C)C1C2CCC1c1c(NC(=O)c3cn(C)nc3C(F)F)cccc12 (centres unmarked) [isopyrazam] gave a Control value (Erysiphe graminis; 16 ppm) of 50 and a Control value (Erysiphe graminis; 31 ppm) of 90.
In the case of COc1cc(C)c(C(=O)c2c(OC)ncc(Cl)c2C)c(OC)c1OC [component (a), 3-(2,3,4-trimethoxy-6-methylbenzoyl)-5-chloro-2-methoxy-4-methylpyridine], the Control value (Botrytis cinerea; 200 ppm) is reported as 0, the Control value (Botrytis cinerea; 400 ppm, spray, lesion area 3 days after inoculation) is reported as 0 and the Control value (Erysiphe graminis; 0.25 ppm) is reported as 30. For the same molecule, the Control value (Erysiphe graminis; 0.5 ppm, spray, area of sporulation 6 to 8 days after inoculation) was 50 and 40.
O=C(NCCc1ncc(C(F)(F)F)cc1Cl)c1ccccc1C(F)(F)F [fluopyram] gave a Control value (Erysiphe graminis; 16 ppm) of 40 and a Control value (Erysiphe graminis; 31 ppm) of 70.
Cn1cc(C(=O)Nc2ccc(F)cc2-c2ccc(Cl)c(Cl)c2)c(C(F)F)n1 [bixafen] showed a Control value (Erysiphe graminis; 250 ppm) of 0 and a Control value (Erysiphe graminis; 500 ppm) of 50.
Work on Cc1nn(C)c(F)c1C(=O)Nc1ccccc1C(C)CC(C)C (centres unmarked) [penflufen] yielded a Control value (Botrytis cinerea; 50 ppm) of 40 and a Control value (Botrytis cinerea; 100 ppm) of 50.
Molecule Cn1cc(C(=O)Nc2ccccc2C2CC2C2CC2)c(C(F)F)n1 (centres unmarked) [sedaxane] has a Control value (Erysiphe graminis; 6.3 ppm) of 0 and a Control value (Erysiphe graminis; 12.5 ppm) of 30.
Work on CCCCCCCCc1c(CC)nc2ncnn2c1N [ametoctradin] yielded a Control value (Erysiphe graminis; 200 ppm) of 0 and a Control value (Erysiphe graminis; 400 ppm) of 15.

Reference: patent publication US20140128411A1, “FUNGICIDAL COMPOSITION AND METHOD FOR CONTROLLING PLANT DISEASES” (Ishihara Sangyo Kaisha, Ltd., priority 2011, published 2014)
